According to patent US20250366474A1, “USE OF 4,5-DIMETHYLTHIAZOLE IN PROMOTING PLANT GROWTH” (HUAZHONG AGRICULTURAL UNIVERSITY, priority 2024, published 2025):

Assays:
[1] = system: rice seedlings; assay: 4,5-dimethylthiazole root drenching: rice seedling dry matter mass and chlorophyll content; format: in vivo; conditions: for Root System Biomass / Shoot Part Biomass / Total Biomass / Total Chlorophyll Content: 30 days of seedling cultivation; for Total Chlorophyll Content: leaves; for Root System Relative Value / Shoot Part Relative Value / Total Chlorophyll Content Relative Value / Total Relative Value: 30 days, vs Control 0 mg/L
Experimental: Five root irrigation solution concentrations (0, 20, 50, 100 and 200 mg/L) and three types of root drenching frequency (2, 4, and 6 times) were set. 4,5-dimethylthiazole of different mass was dissolved in distilled water to obtain root irrigation solutions at different concentrations. After normal rice seed soaking and accelerated germination, rice substrate soil was loaded 2 cm away from a seedling tray opening, gently compacted, and watered with pure water to be wet. A rice seedling nursery substrate was “rice seedling nursery substrate” purchased from Guangzhou Shengsheng Agriculture Co., Ltd., with main ingredients including peat, vermiculite and yellow mud. Two seeds were sowed in each hole on a substrate surface, covered with the substrate soil again to the seedling tray opening, and watered to be wet. Three days after the rice seedling emergence, the root irrigation solutions at different concentrations was applied once every five days, until there was a water layer of 5 mm on a surface of the substrate. Each treatment was applied with a consistent amount. The drenching was conducted during cooler evening hours to minimize evaporation. After 30 days of seedling cultivation, nine rice samples were taken from each treatment, divided into shoot parts and root system, which were dried and then weighed; and leaves were taken from another nine rice plants to measure chlorophyll content.

[2] = system: rice seedlings; assay: 4,5-dimethylthiazole seed soaking: rice seedling dry matter mass and chlorophyll content; format: in vivo, rice (Heliangyou 332); conditions: for Root System Biomass / Shoot Part Biomass / Total Biomass / Total Chlorophyll Content: 30 days of seedling cultivation; for Total Chlorophyll Content: leaves; for Root System Relative Value / Shoot Part Relative Value / Total Chlorophyll Content Relative Value / Total Relative Value: 30 days, vs distilled water soaking
Experimental: 4,5-dimethylthiazole of different weights were dissolved in distilled water to obtain seed soaking agents. Taking seed soaking with distilled water as a control, four seed soaking concentrations (0, 50, 100 and 200 mg/L) were set. Plump and healthy rice seeds (Heliangyou 332) were selected and sterilized with 0.5% sodium hypochlorite for 30 min, and then each seed soaking agent was added in a mass ratio of the seed soaking agent to seed of 1:20. The seeds were soaked in darkness under 28-30° C. condition for 48 h until radicle emergence. The seed soaking solutions were changed every 12 h. Rice substrate soil was loaded 2 cm away from a seedling tray opening, gently compacted, and watered with pure water to be wet. A rice seedling nursery substrate was “rice seedling nursery substrate” purchased from Guangzhou Shengsheng Agriculture Co., Ltd., with main ingredients including peat, vermiculite and yellow mud. Two seeds were sowed in each hole on a substrate surface, covered with the substrate soil again to the seedling tray opening, and watered to be wet. After 30 days of seedling cultivation, nine rice samples were taken from each treatment, divided into shoot parts and root system, which were dried and then weighed; and leaves were taken from another nine rice plants to measure chlorophyll content. […] Regarding the biomass of the shoot parts and the chlorophyll content, the seed soaking concentration 50 mg/L rendered the best effect (Table 2).

[3] = root drenching 2 Times, 20 mg/L
[4] = root drenching 2 Times, 50 mg/L
[5] = root drenching 2 Times, 100 mg/L
[6] = root drenching 2 Times, 200 mg/L
[7] = root drenching 4 Times, 20 mg/L
[8] = root drenching 4 Times, 50 mg/L
[9] = root drenching 4 Times, 100 mg/L
[10] = root drenching 4 Times, 200 mg/L
[11] = root drenching 6 Times, 20 mg/L
[12] = root drenching 6 Times, 50 mg/L
[13] = root drenching 6 Times, 100 mg/L
[14] = root drenching 6 Times, 200 mg/L

Cc1ncsc1C [4,5-dimethylthiazole]
Root System Biomass [1, 3]: 7.5 mg/plant
Shoot Part Biomass [1, 3]: 82.9 mg/plant
Total Biomass [1, 3]: 90.4 mg/plant
Total Chlorophyll Content [1, 3]: 4.77 mg/g
Root System Relative Value [1, 3]: 36.8%
Shoot Part Relative Value [1, 3]: 35.9%
Total Chlorophyll Content Relative Value [1, 3]: 27.8%
Total Relative Value [1, 3]: 36.0%
Root System Biomass [1, 4]: 8.0 mg/plant
Shoot Part Biomass [1, 4]: 79.8 mg/plant
Total Biomass [1, 4]: 87.9 mg/plant
Total Chlorophyll Content [1, 4]: 4.29 mg/g
Root System Relative Value [1, 4]: 46.7%
Shoot Part Relative Value [1, 4]: 30.8%
Total Chlorophyll Content Relative Value [1, 4]: 15.0%
Total Relative Value [1, 4]: 32.1%
Root System Biomass [1, 5]: 8.3 mg/plant
Shoot Part Biomass [1, 5]: 76.3 mg/plant
Total Biomass [1, 5]: 84.6 mg/plant
Total Chlorophyll Content [1, 5]: 3.82 mg/g
Root System Relative Value [1, 5]: 52.2%
Shoot Part Relative Value [1, 5]: 25.0%
Total Chlorophyll Content Relative Value [1, 5]: 2.5%
Total Relative Value [1, 5]: 27.2%
Root System Biomass [1, 6]: 6.3 mg/plant
Shoot Part Biomass [1, 6]: 62.9 mg/plant
Total Biomass [1, 6]: 69.2 mg/plant
Total Chlorophyll Content [1, 6]: 4.51 mg/g
Root System Relative Value [1, 6]: 15.6%
Shoot Part Relative Value [1, 6]: 3.1%
Total Chlorophyll Content Relative Value [1, 6]: 20.8%
Total Relative Value [1, 6]: 4.1%
Root System Biomass [1, 7]: 7.0 mg/plant
Shoot Part Biomass [1, 7]: 74.5 mg/plant
Total Biomass [1, 7]: 81.5 mg/plant
Total Chlorophyll Content [1, 7]: 4.15 mg/g
Root System Relative Value [1, 7]: 27.7%
Shoot Part Relative Value [1, 7]: 22.1%
Total Chlorophyll Content Relative Value [1, 7]: 11.2%
Total Relative Value [1, 7]: 22.6%
Root System Biomass [1, 8]: 8.0 mg/plant
Shoot Part Biomass [1, 8]: 79.9 mg/plant
Total Biomass [1, 8]: 87.9 mg/plant
Total Chlorophyll Content [1, 8]: 4.09 mg/g
Root System Relative Value [1, 8]: 46.3%
Shoot Part Relative Value [1, 8]: 30.9%
Total Chlorophyll Content Relative Value [1, 8]: 9.8%
Total Relative Value [1, 8]: 32.2%
Root System Biomass [1, 9]: 7.7 mg/plant
Shoot Part Biomass [1, 9]: 79.6 mg/plant
Total Biomass [1, 9]: 87.3 mg/plant
Total Chlorophyll Content [1, 9]: 3.82 mg/g
Root System Relative Value [1, 9]: 41.6%
Shoot Part Relative Value [1, 9]: 30.4%
Total Chlorophyll Content Relative Value [1, 9]: 2.3%
Total Relative Value [1, 9]: 31.3%
Root System Biomass [1, 10]: 5.4 mg/plant
Shoot Part Biomass [1, 10]: 70.1 mg/plant
Total Biomass [1, 10]: 75.5 mg/plant
Total Chlorophyll Content [1, 10]: 3.89 mg/g
Root System Relative Value [1, 10]: −0.7%
Shoot Part Relative Value [1, 10]: 14.8%
Total Chlorophyll Content Relative Value [1, 10]: 4.2%
Total Relative Value [1, 10]: 13.6%
Root System Biomass [1, 11]: 8.6 mg/plant
Shoot Part Biomass [1, 11]: 82.7 mg/plant
Total Biomass [1, 11]: 91.3 mg/plant
Total Chlorophyll Content [1, 11]: 4.03 mg/g
Root System Relative Value [1, 11]: 51.8%
Shoot Part Relative Value [1, 11]: 35.4%
Total Chlorophyll Content Relative Value [1, 11]: 8.1%
Total Relative Value [1, 11]: 37.3%
Root System Biomass [1, 12]: 7.9 mg/plant
Shoot Part Biomass [1, 12]: 85.8 mg/plant
Total Biomass [1, 12]: 93.7 mg/plant
Total Chlorophyll Content [1, 12]: 4.32 mg/g
Root System Relative Value [1, 12]: 44.7%
Shoot Part Relative Value [1, 12]: 40.6%
Total Chlorophyll Content Relative Value [1, 12]: 15.9%
Total Relative Value [1, 12]: 41.0%
Root System Biomass [1, 13]: 7.1 mg/plant
Shoot Part Biomass [1, 13]: 74.7 mg/plant
Total Biomass [1, 13]: 81.8 mg/plant
Total Chlorophyll Content [1, 13]: 4.20 mg/g
Root System Relative Value [1, 13]: 30.2%
Shoot Part Relative Value [1, 13]: 22.4%
Total Chlorophyll Content Relative Value [1, 13]: 12.7%
Total Relative Value [1, 13]: 23.1%
Root System Biomass [1, 14]: 7.1 mg/plant
Shoot Part Biomass [1, 14]: 63.5 mg/plant
Total Biomass [1, 14]: 70.6 mg/plant
Total Chlorophyll Content [1, 14]: 3.79 mg/g
Root System Relative Value [1, 14]: 29.7%
Shoot Part Relative Value [1, 14]: 4.1%
Total Chlorophyll Content Relative Value [1, 14]: 1.6%
Total Relative Value [1, 14]: 6.2%
Root System Biomass ([2]; seed soaking 50 mg/L): 8.3 mg/plant
Shoot Part Biomass ([2]; seed soaking 50 mg/L): 80.7 mg/plant
Total Biomass ([2]; seed soaking 50 mg/L): 89.1 mg/plant
Total Chlorophyll Content ([2]; seed soaking 50 mg/L): 4.08 mg/g
Root System Relative Value ([2]; seed soaking 50 mg/L): 52.6%
Shoot Part Relative Value ([2]; seed soaking 50 mg/L): 32.3%
Total Chlorophyll Content Relative Value ([2]; seed soaking 50 mg/L): 9.3%
Total Relative Value ([2]; seed soaking 50 mg/L): 34.0%
Root System Biomass ([2]; seed soaking 100 mg/L): 8.6 mg/plant
Shoot Part Biomass ([2]; seed soaking 100 mg/L): 78.4 mg/plant
Total Biomass ([2]; seed soaking 100 mg/L): 87.1 mg/plant
Total Chlorophyll Content ([2]; seed soaking 100 mg/L): 3.98 mg/g
Root System Relative Value ([2]; seed soaking 100 mg/L): 58.2%
Shoot Part Relative Value ([2]; seed soaking 100 mg/L): 28.5%
Total Chlorophyll Content Relative Value ([2]; seed soaking 100 mg/L): 6.7%
Total Relative Value ([2]; seed soaking 100 mg/L): 31.0%
Root System Biomass ([2]; seed soaking 200 mg/L): 7.8 mg/plant
Shoot Part Biomass ([2]; seed soaking 200 mg/L): 81.1 mg/plant
Total Biomass ([2]; seed soaking 200 mg/L): 88.9 mg/plant
Total Chlorophyll Content ([2]; seed soaking 200 mg/L): 3.99 mg/g
Root System Relative Value ([2]; seed soaking 200 mg/L): 42.9%
Shoot Part Relative Value ([2]; seed soaking 200 mg/L): 32.9%
Total Chlorophyll Content Relative Value ([2]; seed soaking 200 mg/L): 7.0%
Total Relative Value ([2]; seed soaking 200 mg/L): 33.7%
effect on biomass of the shoot parts and chlorophyll content, comparison of seed soaking concentrations ([2]; seed soaking concentration 50 mg/L): best effect
